# Data reported in patent publication US8609648B2, “Hepatitis C virus inhibitors” (Enanta Pharmaceuticals, Inc., priority 2009, dated 2013).
# Tested on: HCV 1b genotype replicon
# Assay: HCV replicon assay (qRT-PCR or luciferase)
# Format: cell-based
# Details: Hepatitis C virus, read-out: Genotype-1b replicon EC50 Range
# Description: HCV replicon cell lines (kindly provided by R. Bartenschlager) isolated from colonies as described by Lohman et. al. (Lohman et al. (1999) Science 285: 110-113, expressly incorporated by reference in its entirety) and used for all experiments. The HCV replicon has the nucleic acid sequence set forth in EMBL Accession No.: AJ242651, the coding sequence of which is from nucleotides 1801 to 8406.
# The coding sequence of the published HCV replicon was synthesized and subsequently assembled in a modified plasmid pBR322 (Promega, Madison, Wis.) using standard molecular biology techniques. One replicon cell line (“SGR 11-7”) stably expresses HCV replicon RNA which consists of (i) the HCV 5′UTR fused to the first 12 amino acids of the capsid protein, (ii) the neomycin phosphotransferase gene (neo), (iii) the IRES from encephalomyocarditis virus (EMCV), and (iv) HCV NS2 to NS5B genes and the HCV 3′UTR. Another replicon cell line (“Huh-luc/neo-ET”) described by Vrolijk et. al. (Vrolijk et. al. (2003) Journal of Virological Methods 110:201-209, expressly incorporated by reference in its entirety) stably expresses HCV replicon RNA which consists of (i) the HCV 5′UTR fused to the first 12 amino acids of the capsid protein, (ii) the firefly luciferase reporter gene, (iii) the ubiquitin gene, (iv) the neomycin phosphotransferase gene (neo), (v) the IRES from encephalomyocarditis virus (EMCV), and (vi) HCV NS3 to NS5B genes that harbor cell culture adaptive mutations (E1202G, T1280I, K1846T) and the HCV 3′UTR.
# These cell lines were maintained at 37° C., 5% CO2, 100% relative humidity in DMEM (Cat#11965-084, Invitrogen), with 10% fetal calf serum (“FCS”, Invitrogen), 1% non-essential amino acids (Invitrogen), 1% of Glutamax (Invitrogen), 1% of 100× penicillin/streptomycin (Cat#15140-122, Invitrogen) and Geneticin (Cat#10131-027, Invitrogen) at 0.75 mg/ml or 0.5 mg/ml for 11-7 and Huh-luc/neo-ET cells, respectively.
# EC50 values of single agent compounds and combinations were determined by HCV RNA detection using quantitative RT-PCR, according to the manufacturer's instructions, with a TAQMAN® One-Step RT-PCR Master Mix Reagents Kit (Cat# AB 4309169, Applied Biosystems) on an ABI Model 7500 thermocycler. The TaqMan primers used for detecting and quantifying HCV RNA were obtained from Integrated DNA Technologies. HCV RNA was normalized to GAPDH RNA levels in drug-treated cells, which is detected and quantified using the Human GAPDH Endogenous Control Mix (Applied Biosystems, AB 4310884E). Total cellular RNA is purified from 96-well plates using the RNAqueous 96 kit (Ambion, Cat# AM1812). Chemical agent cytotoxicity is evaluated using an MTS assay according to the manufacturer's directions (Promega).
# Since clinical drug resistance often develops in viral infections following single agent therapies, there is a need to assess the additive, antagonistic, or synergistic properties of combination therapies. We used the HCV replicon system to assess the potential use of the compound of the present invention or in combination therapies with Interferon alpha, cyclosporine analogs and inhibitors targeting other HCV proteins. The acute effects of a single or combinations of drugs are studied in the “Huh-luc/neo-ET” replicon with each chemical agent titrated in an X or Y direction in a 6 point two-fold dilution curve centered around the EC50 of each drug. Briefly, replicon cells are seeded at 7,000 cells per well in 90 ul DMEM (without phenol red, Invitrogen Cat.#31053-036) per well with 10% FCS, 1% non-essential amino acids, 1% of Glutamax and 1% of 100× penicillin/streptomycin and incubated overnight at 37° C., 5% CO2, 100% relative humidity. […]
row,Structure (SMILES),EC50 [nM]
1,COC(=O)NC1CC[C@@H]2CC[C@@H](c3ncc(-c4ccc(-c5ccc(-c6cnc([C@@H]7CCCN7C(=O)[C@@H](NC(=O)OC)C(C)C)[nH]6)cc5)cc4)[nH]3)N2C1=O (mixture of isomers) [Example 371],< 1
2,COC(=O)N[C@H]1CC[C@@H]2SC[C@@H](c3ncc(-c4ccc(-c5ccc(-c6cnc([C@@H]7CCCN7C(=O)[C@@H](NC(=O)OC)C(C)C)[nH]6)cc5)cc4)[nH]3)N2C1=O [Example 368],< 1
3,COC(=O)N[C@H]1CC[C@H]2CC[C@@H](c3ncc(-c4ccc(-c5ccc(-c6cnc([C@@H]7CCCN7C(=O)[C@@H](NC(=O)OC)C(C)C)[nH]6)cc5)cc4)[nH]3)N2C1=O [Example 369],< 1
4,COC(=O)N[C@H](C(=O)N1CCC[C@H]1c1ncc(-c2ccc(-c3ccc(-c4cnc([C@@H]5CC[C@@H]6CC[C@@H](NC(=O)OC)C(=O)N65)[nH]4)cc3)cc2)[nH]1)C(C)C [Example 370],< 1
5,COC(=O)N[C@H](C(=O)N1CCC[C@H]1c1ncc(-c2ccc(-c3ccc(-c4cnc([C@@H]5CS[C@@H]6CCCC(=O)N65)[nH]4)cc3)cc2)[nH]1)C(C)C [Example 372],< 1
6,COC(=O)N[C@H](C(=O)N1CCC[C@H]1c1ncc(-c2ccc(-c3ccc(-c4cnc([C@@H]5CS[C@H]6CCCC(=O)N65)[nH]4)cc3)cc2)[nH]1)C(C)C [Example 373],< 1
7,COC(=O)N[C@H](C(=O)N1CCC[C@H]1c1ncc(-c2ccc(-c3ccc(-c4cnc([C@@H]5CC[C@H]6CCCCC(=O)N65)[nH]4)cc3)cc2)[nH]1)C(C)C [Example 374],< 1
8,COC(=O)N[C@H](C(=O)N1CCC[C@H]1c1ncc(-c2ccc(-c3ccc(-c4cnc([C@@H]5CC[C@@H]6CCCCC(=O)N65)[nH]4)cc3)cc2)[nH]1)C(C)C [Example 375],< 1
9,COC(=O)N[C@H]1CCC[C@@H]2CC[C@@H](c3ncc(-c4ccc(-c5ccc(-c6cnc([C@@H]7CCCN7C(=O)[C@@H](NC(=O)OC)C(C)C)[nH]6)cc5)cc4)[nH]3)N2C1=O [Example 376],< 1
